Entries after “also recorded” stand apart in the source; their conditions may differ.

Test [1] concerns PTP1B. Briefly: Insulin mimicking effect in liver and skeletal muscle of HFD+STZ mice, PCR analysis: PTP1B. In kind it is in vivo. The note with it: dose-dependent, p<0.05. An excerpt: (§1) Insulin Mimicking Effect of Compound I in Liver and Skeletal Muscle of HFD+STZ Type II Diabetic Mice
(§2) In the insulin signaling pathway, protein tyrosine phosphatase 1B (PTP1B) considered playing a vital role in the intracellular signal transduction process and metabolism. There is compelling confirmation that PTP1B, is principally responsible for the dephosphorylation of insulin receptor (IR-β), as a result, leading to the block of insulin signaling transduction pathway. […] (FIG. 7, a & b)

The test system of test [2] is PTP1B. As to the kind of experiment: Insulin mimicking effect in skeletal muscle and liver of db/db mice, Western blot and PCR: PTP1B. The test is classed as in vivo. To be noted: vs control group, p<0.01. On the procedure: (§3) Insulin Mimicking Effect of COMPOUND I in Skeletal Muscle and Liver of db/db Mice
(§4) To further utilize the insulin mimetic effect of Compound I, the key proteins in PTP1B and PI3K/Akt signaling pathway were evaluated using Western blot and PCR after treatment with Compound I. Western blotting and PCR analysis have been carried out to verify the expression of PTP1B and IR β in skeletal muscle and liver to establish the inhibition effect of Compound I towards PTP1B.
For orientation: In western blotting, separated proteins are transferred to a membrane and probed.

The subject of test [3] is IRS-1, IRS-2, PI3K, Glut4, Akt. Briefly: Liver insulin resistance in C57BL/6J-db/db mice: expression of insulin signaling genes. The test is classed as in vivo. The note with it: vs C57BL/6J-db/db control group, p<0.05. An excerpt:
Effect of Compound I on Liver Insulin Resistance in the C57BL/6J-db/Dbmice
The expression of insulin signaling genes such as IRS-1, IRS-2, PI3K, Glut4, Akt in the livers of the db/db mice reduced noticeably when compared with that of the normal mice. There was a significant enhance within the activation of all the examined genes in the C57BL/6J-db/db treatment group compared to that of normal control group FIG. 8.

Test [4] deals with IRS-1, IRS-2, PI3K, Glut4 and Akt. As to the kind of experiment: Expression of diabetic-associated gene transcripts in streptozotocin-induced diabetic mice, semiquantitative RT-PCR. The test is classed as in vivo. The protocol: One of the mechanisms which can stimulate or enhance glucose uptake in cells is the elevated translocation of glucose transporter 4 (GLUT 4) from the intracellular site to the plasma membrane. […] The expression of diabetic-related, gluconeogenic and glycolytic genes, in streptozotocin-induced diabetic mice, were treated with Compound I was determined using semiquantitative RT-PCR. As the internal control, GAPDH the band density of each target gene normalized to the band density of GAPDH of the sample.

For test [5], the system named is db/db diabetic mice. Briefly: Effect on body weight, total cholesterol, plasma glucose and triglyceride levels of db/db diabetic mice. In kind it is in vivo. To be noted: 100 and 200 mg/kg b.wt, 2 weeks, vs control mice.
For test [6], the system named is db/db diabetic mice. The description is as above. The test is classed as in vivo. An excerpt:
Effect of Compound I on Body Weight Total Cholesterol, Plasma Glucose, and Triglyceride Levels of db/db Diabetic Mice
It is well-known that there is an increase of serum lipid concentration in people with diabetes.
db/db mouse is a genetic obesity diabetic animal model produced with the aid of the shortage of leptin receptor. The pathogenesis features of T2DM in db/db mice was similar to those in human type 2 diabetes, including hyperglycemia, obesity, and insulin resistance. Current years, db/db mice have been broadly used in animal experiments to set up the T2DM model. We have investigated whether Compound I include IR activators with insulin-mimetic and insulin-sensitizing activity by means of evaluating their effects on IR signaling. Compound I (100 mg/kg and 200 mg/kg b.wt) treatment for 7 days reduced food consumption and body weight in the db/db mice, an inherited obese animal model (FIG. 5, a-d). […] Based on these findings, further studies on Compound I have been carried out in the subsequent experiments to explore their inhibitory activity against PTP1B.

The subject of test [7] is HFD+STZ type II diabetic mice. As to the kind of experiment: Effect on body weight, plasma glucose, total cholesterol and triglyceride levels of HFD+STZ type II diabetic mice. In kind it is in vivo, C57BL/6J mice. The source says: Effect of Compound I on body weight, Total cholesterol, Plasma glucose, and triglyceride levels of HFD+STZ type II diabetic mice:
Eight weeks of dietary manipulation with high-fat diet increased the body weight in all the groups when compared to NPD group.
Type 2 diabetes mellitus and its related complications have arisen as serious health problems in modern societies. The cutting edge technology of drug development is to identify small molecule drugs helpful in controlling both diabetes and obesity. In this study, we assess the impact of a small molecule Compound I having insulin mimicking effect by inhibiting PTP-1B and activating IR-β phosphorylation in insulin-sensitive tissues by in vivo animal model. […] The induction of diabetes mellitus in mice confirmed by elevated levels of fasting plasma glucose. Plasma glucose level measured in normal and experimental mice.

Another test deals with PI3K, GLUT4. Briefly: PI3K and GLUT4 gene expression in diabetic mice (discussion). The test is classed as in vivo. An excerpt:
Next, we examine the effect of COMPOUND Ion PTP-1B inhibition and activation of IR-β phosphorylation by PCR and Western blotting studies. In the current study, we used the type 2 diabetic C57BL/6J STZ, HFD+STZ C57BL/6J, db/db mouse model to assess the antihyperglycemic property. […] As shown in FIGS. 6&8, There is a diminish in the tyrosine phosphorylation levels of the IR β- in the skeletal muscle and liver of diabetic mice, involving the PTP1B function in all the diabetic-treated mice. According to Tagami et al. expression of PTP1B activity up regulated in the skeletal muscle and adipose tissue of Otsuka Long-Evans Tokush-in fat rats. Haj et al. established that the hepatic-specific over expression of PTP1B confirmed insulin resistance no longer merely in the liver but also in other tissues in PTP1B knockout mice. For that reason, PTP1B plays a main function in diabetic mice. When PTP1B gets activated, the insulin signaling transduction pathway blocked, and the level of plasma glucose is disturbed, ensuing in the increased plasma glucose level. […] The increased in the tyrosine phosphorylation expression level of the IR β-subunit in the skeletal muscle and liver of Compound I treated diabetic mice point out the enhancement of insulin sensitivity in the entire animal model tested. […]

A further test deals with insulin receptor (IR-β). Briefly: Insulin mimicking effect in liver and skeletal muscle of HFD+STZ mice, PCR analysis: IR-β. In kind it is in vivo. The note with it: dose-dependent.
From the text: as §1, §2

The next test addresses T1, p-IRβ (Mus musculus, UniProt P15208).
T1 construct: from tissue; host or cells: skeletal muscle and liver of db/db mice
As to the kind of experiment: Insulin mimicking effect in skeletal muscle and liver of db/db mice, Western blot and PCR: p-IRβ. The test is classed as in vivo. To be noted: vs non-treated control group. The protocol: as §3, §4

The subject of the next test is p-IRβ, IR. As to the kind of experiment: Phosphorylated insulin-signaling molecules in muscles and liver of diabetic mice (discussion). The test is classed as in vivo. To be noted: oral administration, dose-dependent. The source says:
Next, we examine the effect of COMPOUND Ion PTP-1B inhibition and activation of IR-β phosphorylation by PCR and Western blotting studies. In the current study, we used the type 2 diabetic C57BL/6J STZ, HFD+STZ C57BL/6J, db/db mouse model to assess the antihyperglycemic property. […] As shown in FIGS. 6&8, There is a diminish in the tyrosine phosphorylation levels of the IR β- in the skeletal muscle and liver of diabetic mice, involving the PTP1B function in all the diabetic-treated mice. According to Tagami et al. expression of PTP1B activity up regulated in the skeletal muscle and adipose tissue of Otsuka Long-Evans Tokush-in fat rats. Haj et al. established that the hepatic-specific over expression of PTP1B confirmed insulin resistance no longer merely in the liver but also in other tissues in PTP1B knockout mice. For that reason, PTP1B plays a main function in diabetic mice. When PTP1B gets activated, the insulin signaling transduction pathway blocked, and the level of plasma glucose is disturbed, ensuing in the increased plasma glucose level. […] The increased in the tyrosine phosphorylation expression level of the IR β-subunit in the skeletal muscle and liver of Compound I treated diabetic mice point out the enhancement of insulin sensitivity in the entire animal model tested.

The test system of another test is inflammatory parameters. As to the kind of experiment: Inflammatory mediators in HFD+STZ type II diabetic mice. In kind it is in vivo.
From the text: FIG. 7 depicts the Insulin mimicking effect of compound I in Liver and skeletal muscle of HFD+STZ type II diabetic mice • a. Insulin Mimetic Effect • b. Inflammatory mediators
as §2

[8] abbreviates: 100 and 200 mg/kg b.wt, treatment for 7 days.
[9] abbreviates: 7 days after treatment, vs control mice.
Where [10] appears, read: Compound I, dose-dependent, high dose better (P<0.05).
[11] abbreviates: 14 days after treatment, dose-dependent, vs control mice.
Setting [12] is: C57BL/6J mice fed high-fat diets, 7 days after injection, vs control mice.
The mark [13] stands for this setting: low and high doses (100 and 200 mg/kg), vs diabetic group.
Where [14] appears, read: metformin-treated group vs model group.
Setting [15] is: Metformin 250 mg/kg b.wt, vs diabetic group.

T1 sequence (P15208 753-1372 limits assumed): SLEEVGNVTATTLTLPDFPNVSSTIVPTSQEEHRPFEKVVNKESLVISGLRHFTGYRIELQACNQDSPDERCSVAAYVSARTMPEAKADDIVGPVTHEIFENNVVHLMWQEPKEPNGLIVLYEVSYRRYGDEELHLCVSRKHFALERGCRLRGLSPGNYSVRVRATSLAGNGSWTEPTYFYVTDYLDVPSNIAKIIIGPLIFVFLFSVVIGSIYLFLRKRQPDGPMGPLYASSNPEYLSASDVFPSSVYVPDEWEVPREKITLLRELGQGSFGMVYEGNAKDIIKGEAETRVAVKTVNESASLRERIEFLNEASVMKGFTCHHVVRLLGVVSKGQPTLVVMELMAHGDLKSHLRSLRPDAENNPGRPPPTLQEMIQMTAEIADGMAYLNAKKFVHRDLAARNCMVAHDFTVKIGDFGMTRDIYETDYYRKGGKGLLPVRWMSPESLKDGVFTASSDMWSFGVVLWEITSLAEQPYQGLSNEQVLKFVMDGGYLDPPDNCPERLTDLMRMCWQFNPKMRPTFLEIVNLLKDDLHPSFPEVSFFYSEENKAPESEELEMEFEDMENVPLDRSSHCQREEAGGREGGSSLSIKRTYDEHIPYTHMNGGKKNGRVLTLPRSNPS
T1 sequence (P15208 28-748 partner limits assumed): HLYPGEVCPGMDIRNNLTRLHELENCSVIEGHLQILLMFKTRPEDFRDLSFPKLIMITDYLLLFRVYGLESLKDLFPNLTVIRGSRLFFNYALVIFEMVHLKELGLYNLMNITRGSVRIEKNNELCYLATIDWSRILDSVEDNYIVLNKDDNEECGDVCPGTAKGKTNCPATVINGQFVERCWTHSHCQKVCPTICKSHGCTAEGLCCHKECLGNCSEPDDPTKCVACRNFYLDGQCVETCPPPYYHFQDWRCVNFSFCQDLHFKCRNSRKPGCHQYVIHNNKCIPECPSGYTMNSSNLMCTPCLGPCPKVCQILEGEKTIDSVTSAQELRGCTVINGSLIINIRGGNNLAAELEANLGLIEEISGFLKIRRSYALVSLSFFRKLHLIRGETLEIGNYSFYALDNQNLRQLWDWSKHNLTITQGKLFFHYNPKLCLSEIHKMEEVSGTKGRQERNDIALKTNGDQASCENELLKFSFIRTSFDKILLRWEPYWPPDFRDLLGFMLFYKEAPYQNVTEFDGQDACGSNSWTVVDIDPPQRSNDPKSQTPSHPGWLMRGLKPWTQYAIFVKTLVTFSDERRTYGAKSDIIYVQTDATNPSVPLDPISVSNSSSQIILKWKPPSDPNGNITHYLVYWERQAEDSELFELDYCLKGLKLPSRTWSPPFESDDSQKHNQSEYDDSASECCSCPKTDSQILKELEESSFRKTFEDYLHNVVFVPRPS

For `COc1cc(CO)cc2c1[nH]c1c(/C(C)=C/C(=O)O)cccc12` [Compound I, (2E)-3-[6-(hydroxymethyl)-8-methoxy-9H carbazol-1-yl]but-2-enoic acid], in the test on PTP1B [1], the “expression of PTP1B” value was “significantly decreased”. Moreover, the PTP1B expression result with PTP1B [2] is “downregulated substantially”. Besides, the “expression of all genes involved in insulin signaling pathway” value in test [3] was “notably enhanced”. In addition, in [4] (Compound I 100 mg/kg, Liver tissue), the “expression of all the gene transcripts, fold increased expression” value was approximately 2.5 fold. Further, the “expression of all the gene transcripts, fold change” value in test [4] (Compound I 100 mg/kg, skeletal muscle) is given as approximately 3.5 fold change. Moreover, the body weights result in the test on db/db diabetic mice [5] is on record as “significantly decreased”. For the same compound, the food intake entry with db/db diabetic mice [5] (p>0.05) is reported as “extensively lower”. The “free fatty acids levels” value in the test with db/db diabetic mice [6] (100 and 200 mg/kg b.wt, 7 days, vs normal control) was “reduced”. In the test with db/db diabetic mice [6] (setting [8]), the body weight result was “reduced” and the food consumption entry is “reduced”. In addition, in the test on db/db diabetic mice [6] (setting [9]), the Fasting plasma glucose entry is listed as “markedly lower; also recorded: reduced”, the insulin result is given as “markedly lower; also recorded: reduced” and the triglyceride levels entry is reported as “markedly lower; also recorded: reduced”. In the test on db/db diabetic mice [6] (setting [10]), the total cholesterol concentration result was “lowered” and the triglycerides concentration entry is “lowered”. In addition, in [7] (100 and 200 mg/kg b.wt, C57BL/6J mice fed high-fat diets for 7 days, vs control mice), the food intake result is reported as “extensively decreased”. Besides, in test [7] (setting [11]), the Fasting plasma glucose entry is reported as “markedly diminished”, the insulin levels result is “markedly diminished; also recorded: markedly reduced” and the triglyceride levels result is given as “markedly diminished; also recorded: markedly reduced”. In test [7] (setting [12]), the “Fasting plasma glucose levels” value is “markedly diminished”, the insulin levels entry is “markedly diminished” and the triglyceride levels entry is on record as “markedly diminished”. For the same compound, the body weights entry in [7] (C57BL/6J mice fed high-fat diets, 7 days, vs normal control mice) was “widely dropped”. In addition, the food intake result in test [7] (Compound I 100 mg/kg and 200 mg/kg b.wt, 14 days, C57BL/6J mice fed high-fat diets, vs control mice, p<0.001) is “drastically lower”. For the same compound, the body weights result in [7] (Compound I 100 and 200 mg/kg b.wt, 14 days, vs control mice) is reported as “significantly reduce”. Besides, in test [7] (setting [13]), the “decrease in Plasma glucose levels” value was “approximately two fold”, the “decrease in triglycerides levels” value was “approximately two fold” and the “total cholesterol levels reduced” value is given as 2.5 fold. Also, in test [7] (oral 100 mg/kg and 200 mg/kg b.wt, STZ-treated diabetic mice), the plasma glucose level entry was “highly significant effect by reducing”. Further, the “PI3K and GLUT4 expression levels” value in the test with PI3K, GLUT4 (in contrast to diabetic mice) is recorded as “enhanced significantly”. Moreover, the “GLUT4 mRNA expression” value with PI3K, GLUT4 (vs normal control group) is reported as “extremely expressed”. Moreover, in the test with insulin receptor (IR-β), the IR-β levels entry is listed as “concomitant increase”. In addition, the p-IRβ result at p-IRβ is listed as “significantly increased”. Besides, in the test with p-IRβ, IR, the “expression level of proteins (p-IRβ, IR)” value is on record as “significantly augmented”. The “expression of inflammatory parameters” value in the test on inflammatory parameters is reported as “significantly reduced”.

For `CN(C)C(=N)N=C(N)N` [Metformin, reference compound], the “levels of insulin-signaling gene expression” value in test [4] (Metformin-treated groups, skeletal muscle and liver tissue, p<0.05) was “increased levels”. Besides, in the test with db/db diabetic mice [6] (setting [14]), the “serum total cholesterol levels” value was “lower than in the model group” and the serum triglyceride levels result is given as “lower than in the model group”. In test [7] (setting [15]), the glucose entry was “markedly reduced”, the total cholesterol result is listed as “markedly reduced” and the triglycerides result is “markedly reduced”.

Source of the values: patent publication US20260130888A1, “NOVEL THERAPEUTIC MOLECULE” (Pillai Universal LLC, priority 2022, published 2026).
